Experimental data reported in the supplement of paper PMC11451515.

Test system: P12-Ichikawa
Assay: cell viability relative to DMSO control; higher = less cytotoxic
Details: 48 h
In short: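 Three leukemia lines were tested: NOMO1 and SEM at 500 cells/well and P12-Ichikawa at 1000 cells/well. Each was adapted for at least four passages in each medium and seeded in 5 μl in 1536-well plates, and library compounds in DMSO were pin-dosed from 47 μM to 0.79 nM in 11 threefold steps. After 48 h at 37°C, CellTiter-Glo One luminescence was read. Viability is a percentage relative to DMSO wells on each plate, with cell-free wells as background.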

[1] = HPLM + 10% dialyzed FBS, 0.000781 µM
[2] = HPLM + 10% dialyzed FBS, 0.00234 µM
[3] = HPLM + 10% dialyzed FBS, 0.00702 µM
[4] = HPLM + 10% dialyzed FBS, 0.0211 µM
[5] = HPLM + 10% dialyzed FBS, 0.0632 µM
[6] = HPLM + 10% dialyzed FBS, 0.19 µM
[7] = HPLM + 10% dialyzed FBS, 0.569 µM
[8] = HPLM + 10% dialyzed FBS, 1.71 µM
[9] = HPLM + 10% dialyzed FBS, 5.12 µM
[10] = HPLM + 10% dialyzed FBS, 15.4 µM
[11] = HPLM + 10% dialyzed FBS, 46.1 µM
[12] = RPMI 5 mM glucose + 10% FBS, 0.000781 µM
[13] = RPMI 5 mM glucose + 10% FBS, 0.00234 µM
[14] = RPMI 5 mM glucose + 10% FBS, 0.00702 µM
[15] = RPMI 5 mM glucose + 10% FBS, 0.0211 µM
[16] = RPMI 5 mM glucose + 10% FBS, 0.0632 µM
[17] = RPMI 5 mM glucose + 10% FBS, 0.19 µM
[18] = RPMI 5 mM glucose + 10% FBS, 0.569 µM
[19] = RPMI 5 mM glucose + 10% FBS, 1.71 µM
[20] = RPMI 5 mM glucose + 10% FBS, 5.12 µM
[21] = RPMI 5 mM glucose + 10% FBS, 15.4 µM
[22] = RPMI 5 mM glucose + 10% FBS, 46.1 µM
[23] = RPMI 5 mM glucose + 10% dialyzed FBS, 0.000781 µM
[24] = RPMI 5 mM glucose + 10% dialyzed FBS, 0.00234 µM
[25] = RPMI 5 mM glucose + 10% dialyzed FBS, 0.00702 µM
[26] = RPMI 5 mM glucose + 10% dialyzed FBS, 0.0211 µM
[27] = RPMI 5 mM glucose + 10% dialyzed FBS, 0.0632 µM
[28] = RPMI 5 mM glucose + 10% dialyzed FBS, 0.19 µM
[29] = RPMI 5 mM glucose + 10% dialyzed FBS, 0.569 µM
[30] = RPMI 5 mM glucose + 10% dialyzed FBS, 1.71 µM
[31] = RPMI 5 mM glucose + 10% dialyzed FBS, 5.12 µM
[32] = RPMI 5 mM glucose + 10% dialyzed FBS, 15.4 µM
[33] = RPMI 5 mM glucose + 10% dialyzed FBS, 46.1 µM

Structure (SMILES) | cell viability [1] [%] | cell viability [2] [%] | cell viability [3] [%] | cell viability [4] [%] | cell viability [5] [%] | cell viability [6] [%] | cell viability [7] [%] | cell viability [8] [%] | cell viability [9] [%] | cell viability [10] [%] | cell viability [11] [%] | cell viability [12] [%] | cell viability [13] [%] | cell viability [14] [%] | cell viability [15] [%] | cell viability [16] [%] | cell viability [17] [%] | cell viability [18] [%] | cell viability [19] [%] | cell viability [20] [%] | cell viability [21] [%] | cell viability [22] [%] | cell viability [23] [%] | cell viability [24] [%] | cell viability [25] [%] | cell viability [26] [%] | cell viability [27] [%] | cell viability [28] [%] | cell viability [29] [%] | cell viability [30] [%] | cell viability [31] [%] | cell viability [32] [%] | cell viability [33] [%]
CCCCCOC(=O)NC\1=N\C(=O)N(\C=C1F)[C@@H]2O[C@H](C)[C@@H](O)[C@H]2O | 107 | 91.7 | 101 | 103 | 97.1 | 103 | 93.8 | 96.4 | 94.2 | 89.9 | 86.7 | 96.7 | 99.4 | 97.4 | 93.7 | 101 | 91.5 | 92.6 | 93.3 | 89.6 | 77.3 | 84 | 101 | 96.1 | 96.2 | 94.8 | 100 | 93 | 91.2 | 87.2 | 90.1 | 83.8 | 83.8
NC(=O)c1cnc(N[C@@H]2CCCC[C@@H]2N)nc1Nc1cccc(-n2nccn2)c1 | 111 | 117 | 126 | 124 | 122 | 132 | 136 | 128 | 123 | 133 | 77.6 |  |  |  |  |  |  |  |  |  |  |  |  |  |  |  |  |  |  |  |  |  | 
OC(=O)C1=CC=C(NC2=NC3=C(C\N=C(/C4=CC(=CC=C34)Cl)C5=C(F)C=CC=C5F)C=N2)C=C1 | 93.9 | 101 | 97.8 | 105 | 104 | 89.4 | 77.6 | 48.5 | 27.1 | 18.6 | 18.3 | 95.8 | 99.1 | 106 | 107 | 110 | 93.9 | 74.4 | 48.9 | 27 | 24.7 | 25.1 | 98.1 | 95.1 | 96.2 | 91.4 | 101 | 95.4 | 75.7 | 52.3 | 36.6 | 32.6 | 30.7
Cc1cc(OCCCc2c(C(=O)O)n(Cc3cccnc3)c3c(-c4c(COc5ccc(N6CCN([S+](C)(=O)[O-])CC6)cc5)nn(C)c4C)cccc23)cc(C)c1Cl | 99.6 | 100 | 100 | 97 | 99.8 | 97.4 | 92.9 | 96.1 | 86.9 | 88.1 | 80.4 | 92.4 | 102 | 96.6 | 102 | 101 | 95.6 | 85.9 | 89.3 | 86.2 | 88.3 | 77.1 | 91.3 | 95 | 99.3 | 97.5 | 102 | 98.4 | 90.9 | 93.5 | 93.1 | 78.2 | 82.9
COc1ccc(C[C@@H](C)[C@@H](C)Cc2ccc(OC)c(OC)c2)cc1OC | 92.6 | 105 | 102 | 110 | 99.4 | 102 | 97.7 | 83 | 6.15 | 5.92 | 2.61 | 97 | 103 | 98.3 | 110 | 111 | 99.7 | 92.4 | 81 | 4.82 | 4.04 | 2.42 | 95.4 | 102 | 105 | 107 | 104 | 90.6 | 93.4 | 81.9 | 6.68 | 4.98 | 2.21
C=C(C)[C@@H]1CC[C@]2(C(=O)O)CC[C@]3(C)[C@H](CC[C@@H]4[C@@]5(C)CC[C@H](O)C(C)(C)[C@@H]5CC[C@]43C)[C@@H]12 | 111 | 123 | 120 | 114 | 116 | 111 | 109 | 103 | 99.9 | 99.1 | 97.3 | 108 | 116 | 114 | 109 | 116 | 107 | 119 | 106 | 97.8 | 98.5 | 103 | 114 | 121 | 120 | 110 | 108 | 102 | 111 | 100 | 95.1 | 94.3 | 87.3
COC1=NC(=NC(=C1N\C2=N\CCN2)Cl)C | 87 | 90 | 83.9 | 98.2 | 94.8 | 94.1 | 93.4 | 95 | 93.9 | 103 | 109 | 84.1 | 95.6 | 88.3 | 95.3 | 100 | 94.9 | 101 | 95.5 | 82.6 | 93.4 | 107 | 83.3 | 91.6 | 83.6 | 95.1 | 89.6 | 87.7 | 91.4 | 88.6 | 84.5 | 94 | 87.5
CC(C)[C@@H](N(CCCN)C(=O)C1=CC=C(C)C=C1)C/2=N/C3=CC(=CC=C3C(=O)N2CC4=CC=CC=C4)Cl | 97.6 | 12 | 10.4 | 8.9 | 8.1 | 8.2 | 5.86 | 7.66 | 5.88 | 7.47 | 8.59 | 96.2 | 12.6 | 10.8 | 11.7 | 9.51 | 12 | 8.85 | 8.68 | 7.23 | 7.78 | 7.67 | 88.8 | 48.5 | 18.6 | 14.5 | 12.8 | 13.4 | 11.1 | 14.6 | 11.3 | 11.3 | 10.9
CCCCn1c(=O)n(Cc2ccccc2F)c(=O)c2nc(Cc3ccc(NC(C)=O)cc3)[nH]c21 | 93.4 | 95.6 | 94.6 | 90.1 | 88.6 | 88.8 | 89.4 | 79.6 | 85.5 | 83.3 | 92.8 | 87.9 | 87.8 | 89.9 | 85 | 94.5 | 88.3 | 82.7 | 75.5 | 82.5 | 79.2 | 89.1 | 88.2 | 82.1 | 87.2 | 91.3 | 90.5 | 78.6 | 86.3 | 90.7 | 85.9 | 79.7 | 83
COc1cccc2cc(-c3nc(C4CCC(C(=O)O)CC4)n4ncnc(N)c34)[nH]c12 (centres undefined) | 111 | 117 | 120 | 112 | 91.3 | 98.6 | 21 | 14.3 | 13.8 | 14.2 | 24.5 | 109 | 116 | 114 | 99.9 | 89 | 91.4 | 67.8 | 18.7 | 13.8 | 13.4 | 12.6 | 115 | 123 | 112 | 119 | 89.6 | 93.3 | 70.2 | 26.5 | 23.2 | 20.1 | 22.3
O=C(NCC[S+](=O)([O-])c1ccc(C(F)(F)F)cn1)c1ccc(Cl)cc1 | 115 | 116 | 121 | 115 | 118 | 117 | 115 | 117 | 110 | 112 | 108 | 117 | 124 | 118 | 127 | 117 | 115 | 111 | 107 | 119 | 107 | 109 | 112 | 126 | 121 | 121 | 120 | 116 | 115 | 103 | 115 | 102 | 102
COC1=CC2=NC=CC(=C2C=C1)OC3=CN=C(NC(=O)C/4=C(C)/N(CC(C)(C)O)N(C4=O)C5=CC=CC=C5)C=C3 | 87.7 | 92.6 | 87.6 | 91.3 | 97.1 | 96.4 | 95 | 91.6 | 76.9 | 85.7 | 74.4 | 89.4 | 87.9 | 89.7 | 92.1 | 92.1 | 91.9 | 89.5 | 90.5 | 70.1 | 90 | 63.6 | 81.1 | 88.7 | 89.8 | 98.5 | 96.6 | 93.2 | 94.9 | 91.4 | 78.8 | 81.9 | 61.2
CN(C)c1ccc(O)c2c1C[C@H]1C[C@H]3[C@H](N(C)C)C(O)=C(C(N)=O)C(=O)[C@@]3(O)C(O)=C1C2=O | 109 | 106 | 105 | 97.4 | 107 | 110 | 103 | 99.9 | 104 | 91.2 | 106 | 113 | 110 | 101 | 100 | 112 | 103 | 101 | 95.2 | 88.5 | 94.9 | 93.9 | 110 | 116 | 112 | 118 | 118 | 95.6 | 86.2 | 81.7 | 82.5 | 92.6 | 98.8
CC\1=C/C=C\C=[N]1[Pt](N)(Cl)Cl | 98.1 | 108 | 113 | 108 | 105 | 109 | 102 | 114 | 104 | 107 | 108 | 98.1 | 98.4 | 102 | 104 | 118 | 118 | 114 | 106 | 99.1 | 108 | 97.3 | 102 | 109 | 98.3 | 107 | 114 | 112 | 110 | 105 | 105 | 87.2 | 91.4
CC(N[C@H]1C[C@@H]1c1ccccc1)c1ccc2c(c1)OCCO2 (some centres undefined) | 119 | 117 | 121 | 128 | 119 | 118 | 116 | 113 | 107 | 112 | 104 |  |  |  |  |  |  |  |  |  |  |  |  |  |  |  |  |  |  |  |  |  | 
CC1(C)O[C@@H]2C[C@H]3[C@@H]4CCC5=CC(=O)C=C[C@]5(C)[C@@]4(F)[C@@H](O)C[C@]3(C)[C@]2(C(=O)CO)O1 | 101 | 105 | 104 | 100 | 86.2 | 76.7 | 55.6 | 63.2 | 39.4 | 18.5 | 8.39 | 111 | 115 | 108 | 115 | 76.5 | 70.2 | 55.3 | 55.9 | 40 | 17.9 | 7.85 | 99.5 | 108 | 100 | 93.2 | 77.6 | 57.9 | 47.4 | 52.6 | 34 | 30.1 | 9.61
